Laboratory results from patent US9328125B2, “Bivalent AMPA receptor positive allosteric modulators” (The Board of Regents of the University of Texas System, priority 2012, dated 2016).
Where two headings read alike, the source gives them in different places.

Columns and labels:
[1] = test system: PCP-induced caspase-3 activity; assay: PCP-induced caspase-3 enzyme activity in organotypic cortical-striatal slices, modulation of the (±)AMPA effect; format: cell-based, rat; settings: for modulation of AMPA effect on PCP-induced caspase-3 activity, in words: AMPA 1 μM, FIG. 2A-2B; for IC50: Rattus norvegicus
Method: The inventors have designed and chemically synthesized a class of new bivalent AMPAR ligands (see examples in Table 1). […] The neuroprotective effect of (±)APMA on PCP-induced caspase-3 activities was potentiated by cyclothiazide (CTZ) and aniracetam, two existing AMPAR ligands (approximate IC50 1-3 μM, FIG. 2A for CTZ).
B. Measurement of Caspase-3 Enzyme Activities
Compounds showing significant AMPAR PAM effects on glutamate-induced calcium influx in HEK293 expressing hGluA1i/3i were further tested for their ability to prevent PCP-induced caspase-3 activation in our established in vitro organotypic slice model (Wang et al., Neuropsychopharmacology 32(5): 1178-1194, 2007). Initial screening includes two steps. In step one, all candidates were tested in a single experiment to determine an appropriate approximate concentration range for its effect on PCP-induced caspase-3 activity by adding eight serial concentrations of the compound at log intervals (0, 0.0001-10 μM). Compounds showing promising ˜IC50 (<10 μM) and slope (0.8-1.20) was further screened in a paradigm in which each selected compound was tested in 3 independent experiments to determine its IC50 and slope values by adding eight serial concentrations of the compound at approximately half-log intervals. For all initial screening experiments, rat organotypic brain slice cultures were prepared as previously described (Wang et al., Neuropsychopharmacology 32(5): 1178-1194, 2007). All experiments were executed on DIV10. In each experiment, the slices were pre-treated with the solution vehicle (0.1% DMSO) or 6 serial concentrations of the new compounds for 15 min, followed with (±)APMA (1 μM) (or its vehicle, 0.1% DMSO) for another 15 min. PCP (3 μM) or its vehicle (saline) was added and incubation continued for 6 hrs. The superficial cortical layers of each treated slice were harvested with the aid of an inverted microscopy and placed into ice-cold lysis buffer. Supernatants were collected and caspase-3 activity measured as described previously (Wang et al., Neuropsychopharmacology 32(5): 1178-1194, 2007). Caspase-3 activity was measured over 60 min and calculated as the difference between the substrate degradation rate in samples containing and those not containing Z-DEVD-FMK, a selective caspase-3 inhibitor. Data are expressed as DEVDase activity (AFC pmoles/mg protein/60 min). Protein was measured by the bicinchoninic acid (BCA) technique (Smith et al., 1985), using bovine serum albumin as standards. Each activity measurement was averaged from duplicate samples. Baseline activity (saline treated) was subtracted from all treatments. The caspase-3 activity of in slices incubated with PCP alone served as a positive control. Each compound's activity was normalized to the protective effect of (±)AMPA against PCP (100%). IC50 and slope values were analyzed and determined with the SigmaPlot four-parameter equation as described previously (Petukhov et al., J Med Chem 47(12): 3009-3018, 2004). Each compound's IC50 and slope values were determined from data in at least 3 individual experiments. Group data is reported as mean±SEM.

[2] = test system: AMPA receptor; assay: Glutamate (100 μM)-evoked calcium influx in DIV9 dissociated rat forebrain neurons; format: cell-based; settings: for EC50 / Emax (%) / pEC50 (-logEC50): Glutamate (100 μM)-evoked Ca2+ influx; for enhancement of glutamate-evoked calcium influx, in words: glutamate 100 μM, DIV9 dissociated rat forebrain neurons cultured on PND1
Text: Fluorometric readings were taken from each well every 1.7 seconds for 20 seconds before any addition to record baseline value and for 70 seconds after addition of any compound(s) to monitor the induced changes of calcium influx. Each well's peak fluorescence reading after addition of compound(s) represents effect of a certain concentration of a given compound(s) after subtracting the average baseline fluorescence. Peak fluorometric reading from duplicate or triplicate wells was averaged, and represents the effect of a certain concentration on calcium influx after subtracting control value. […] points were fitted with a sigmoidal function (bottom asymptote=100, nHill=1) by using Prism from GraphPad (San Diego, Calif.) to determine the compound's EC50 (affinity or potency). Each compound's EC50 was summarized from at least 3 individual experiments and presented as the mean±SE.

[3] = test system: morphine tolerance; assay: Morphine tolerance, tail-flick test; format: in vivo, mouse; settings: 10 mg/kg
Method: The tail-flick test was used to determine basal nociception and morphine antinociception as described previously (Wang et al., J Neurosci 21:1779-86, 2001; Tang et al., J Pharmacol Exp Ther 317:901-909, 2006). In brief, One third of the distal portion of mouse tail was immersed into a water bath maintained at 52° C., and the latency of a quick tail-flick response was recorded. Morphine-antinociception was evaluated 30 min after a test dose of morphine (10 mg/kg s.c. unless otherwise stated) and is expressed as the percentage of maximal possible effect (MPE). MPE %=100%×(postdrug latency−predrug latency)/(cutoff−predrug latency). A 12-s cutoff time was used to prevent tissue damage (FIG. 9A and FIG. 10A).
(§1) G. Chronic Opioid Tolerance and Dependence.
(§2) To induce chronic opioid tolerance and dependence, mice were treated with morphine (10 mg/kg s.c., given at 8:00 AM and 6:00 PM) for 5 days (Herz and Teschemacher, Experientia 29:64-65, 1973). Control mice received an equal number and volume of injections with saline. Morphine tolerance and naloxone-precipitated withdrawal were evaluated. Haloperidol (0.1-1.0 mg/kg i.p. or p.o.) was given 30 min before the test dose of morphine or naloxone (FIG. 9B and FIG. 10B).

[4] = test system: PCP-induced cleaved caspase-3 immunoreactive neurons in frontal cortex (M2/1); assay: Image analysis of cleaved caspase-3 immunoreactive neurons in frontal cortex (M2/1) of PND7 rats exposed to PCP; format: in vivo, rat
Method: Cleaved caspase-3 immunoreactive neurons, 8 hrs on PND7 after Saline (A) or PCP (10 mg/kg, sc, B-E) without (A-B) or with (C-E) pretreatment (30 min prior to PCP) of HJC-1-22 (C, 0.1 mg/kg; D, 1 mg/kg; E, 10 mg/kg, sc) were shown.
C. Image Analysis of Cleaved Caspase-3 Immunoreactive Neurons
PCP induces developmental neuroapoptosis via caspase-3 activation in vulnerable neurons (Wang et al., Neuropsychopharmacology 32(5): 1178-1194, 2007). Caspase-3 activation in vivo can be observed by immunohistochemistry with specific antibodies against cleaved caspase-3 protein and quantified by image analysis of cleaved caspase-3 immunoreactive neurons in specific brain region(s) or sub-region(s) in developing brain. Compounds showing significant AMPAR PAM effects on glutamate-induced calcium influx in HEK293 expressing hGluA1i/3i and significant preventive effect on PCP-induced caspase-3 enzyme activities in organotypic slices were further defined their abilities to block PCP-induced apoptosis in vivo.
PND7 rat pups were used in the in vivo studies. […]
In step 1, each candidate was tested in two (n=2) individual experiments by using PND7 rat pups from 2 different liters. […] The activity percentages (%) of each dose vs. PCP were calculated to estimate its IC50 which was used to determine its in vivo effective dose range for the step 2 study. […]

[5] = test system: morphine physical dependence; assay: Morphine physical dependence, naloxone-precipitated withdrawal; format: in vivo, mice; settings: 10 mg/kg
Method: as §1, §2

[6] = existing AMPAR ligands, FIG. 2A for CTZ, read-out: approximate IC50, potentiation of neuroprotective effect of (±)AMPA on PCP-induced caspase-3 activities
[7] = organotypic slices, (±)AMPA 1 μM, PCP 3 μM, read-out: IC50, modulation of (±)AMPA effect on PCP-induced caspase-3 activity

| EC50 [2] [nM] | pEC50 (-logEC50) [2] | SMILES | modulation of AMPA effect on PCP-induced caspase-3 activity, in words ([1]; PCP 3 μM) | Emax (%) [2] [%] | enhancement of glutamate-evoked calcium influx, in words [2] | other results |
| --- | --- | --- | --- | --- | --- | --- |
| 4.02 | 8.39 | CC(C)S(=O)(=O)NC[C@H](C)c1ccc(-c2ccc(CCN3CCCC3=O)cc2)cc1 [HJC0173, Propane-2-sulfonic acid (2-{4′-[2-(2-oxo-pyrrolidin-1-yl)-ethyl]-biphenyl-4-yl}-propyl)amide] |  | 127.1 |  |  |
| 0.06 | 10.21 | CC(C)S(=O)(=O)NC[C@H](C)c1ccc(-n2ccc3cc(C(=O)N4CCCC4)ccc32)cc1 [HJC0210, Propane-2-sulfonic acid (2-{4-[5-(pyrrolidine-1-carbonyl)-indol-1-yl]-phenyl}-propyl)amide] |  | 157.5 | enhanced glutamate (100 μM)-evoked calcium influx in a concentration-dependent manner |  |
| 8.76 | 8.06 | CC(C)S(=O)(=O)NC[C@H](C)c1ccc(-n2ccc3ncccc32)cc1 [HJC0229, Propane-2-sulfonic acid [2-(4-pyrrolo[3,2-b]pyridin-1-yl-phenyl)-propyl]amide] |  | 168.9 |  |  |

The next lines start with the compound.

| SMILES | EC50 [2] [nM] | pEC50 (-logEC50) [2] | modulation of AMPA effect on PCP-induced caspase-3 activity, in words ([1]; PCP 3 μM) | Emax (%) [2] [%] | enhancement of glutamate-evoked calcium influx, in words [2] | other results |
| --- | --- | --- | --- | --- | --- | --- |
| NS(=O)(=O)c1cc2c(cc1Cl)NC(C1CC3C=CC1C3)NS2(=O)=O (centres unmarked) [CTZ, cyclothiazide, reference compound] |  |  | concentration-dependent fashion |  |  | IC50 [1, 6]: 1000 to 3000 nM |
| CC(C)S(=O)(=O)NC[C@H](C)c1ccc(-c2ccnc(C(=O)N3CCCC3)c2)cc1 [HJC-1-22, Propane-2-sulfonic acid (2-{4-[2-(pyrrolidine-1-carbonyl)-pyridin-4-yl]phenyl}-propyl)-amide] | 6.53 | 8.28 | displayed more potent activity than LY451395 | 170.0 | enhanced glutamate (100 μM)-evoked calcium influx in a concentration-dependent manner | IC50 [1, 7]: 15 nM; reversal of established morphine tolerance ([3]; FIG. 9A): reversed established morphine tolerance; prevention of development of morphine tolerance ([3]; FIG. 10A): prevented the development of morphine tolerance; prevention of PCP (10 mg/kg)-induced caspase-3 activation in frontal cortex ([4]; 10 mg/kg sc, 30 min prior to PCP (10 mg/kg, sc)): 85%; effect on PCP-induced cleaved caspase-3 immunoreactive neurons in frontal cortex (M2/1), in words ([4]; 0.1, 1, 10 mg/kg sc, 30 min prior to PCP, 8 hrs): significantly reduced PCP-induced cleaved caspase-3 immunoreactive neurons; reversal of morphine physical dependence ([5]; FIG. 9B): partially reversed physical dependence; prevention of morphine physical dependence ([5]; FIG. 10B): partially prevented physical dependence |
| CC(C)S(=O)(=O)NC[C@H](C)c1ccc(-n2ccc3cc(C(=O)N4CCCCC4)ccc32)cc1 [HJC-1-24, Propane-2-sulfonic acid (2-{4-[5-(piperidine-1-carbonyl)-indol-1-yl]-phenyl}-propyl)amide] |  |  | displayed more potent activity than LY451395 |  |  | IC50 [1, 7]: 5 nM; fold more potent than CTZ (IC50, caspase-3 activity) ([1]; versus CTZ): at least 200 fold |
| CC(C)S(=O)(=O)NC[C@H](C)c1ccc(-c2ccc(CCNS(C)(=O)=O)cc2)cc1 [LY451395, reference compound] |  |  |  |  | enhanced glutamate (100 μM)-evoked calcium influx in a concentration-dependent manner |  |
| COc1ccc(C(=O)N2CCCC2=O)cc1 [aniracetam, reference compound] |  |  |  |  |  | IC50 [1, 6]: 1000 to 3000 nM |
